Laboratory results reported in patent US12139487B2, “Compounds and uses thereof” (Foghorn Therapeutics Inc., priority 2022, dated 2024).

Test system: BRM-dependent transcription (BRG1 mutant lung cancer cell line A549)
Experiment: BRM-dependent transcription, MMTV luciferase reporter in BRG1 mutant A549 cells
Type: cell-based
Settings: Table 11; for IC50: A549-MMTV luciferase reporter, dexamethasone induced, 6 hours; for Ratio (MDA-MMTV IC50 (μM) divided by A549-MMTV IC50 (μM)): MMTV luciferase reporter cell lines, selectivity BRG1/BRM
Method: The potential inhibitory effects of compounds on BRG1 and BRM dependent transcription was study by testing the activity of against the BRG1 mutant lung cancer cell line A549 and a MDA cell line with BRM removed by CRISPR. Both cell lines were genetically engineered with a BRG1 or BRM-dependent mouse mammary tumor virus luciferase reporter. Luciferase transcription was induced by dexamethasone in the presence of compound at different concentrations and luminescence was measured using a plate reader 6 hours after stimulation.

| SMILES | IC50 (Homo sapiens, A549, 6 h) | Ratio (MDA-MMTV IC50 (μM) divided by A549-MMTV IC50 (μM)) | IC50 |
| --- | --- | --- | --- |
| O=C(NCc1cc2nc(-c3cccc4c3OC(F)(F)O4)ccc2cn1)c1cc(C(F)F)c2c(c1)S(=O)(=O)[C@@H](F)COC2 [Compound 503] | 17.3 nM | 33.25 |  |
| O=C(NCc1cc2nc(-c3ccnc(N4CCCC4)n3)ccc2cn1)c1cc(Cl)c2c(c1)S(=O)(=O)[C@@H](F)CCO2 [Compound 345] | 15.6 nM | 21.59 |  |
| COCCOc1cnc2c(c1)CCCN2c1ccc2cnc(CNC(=O)c3cc(C(F)F)c4c(c3)S(=O)(=O)[C@@H](F)COC4)cc2n1 [Compound 439] | 13.3 nM | 27.20 |  |
| CN1Cc2c(Cl)cc(C(=O)NCc3cc4nc(-c5cccc(OC(F)F)n5)ccc4cn3)cc2S(=O)(=O)[C@H](F)C1 [Compound 466] | 24.6 nM | 48.16 |  |
| [2H]C([2H])([2H])C([2H])([2H])Oc1nc(C(F)F)ccc1-c1ccc2cnc(CNC(=O)c3cc(Br)c4c(c3)S(=O)(=O)[C@@H](F)COC4)cc2n1 [Compound 486] | 13.3 nM | 33.87 |  |
| COCCOc1cnc2c(-c3ccc4cnc(CNC(=O)c5cc(Cl)c6c(c5)S(=O)(=O)[C@@H](F)COC6)cc4n3)cccc2c1 [Compound 513] | 13.7 nM | 27.47 |  |
| [2H]C([2H])([2H])Oc1ccc(-c2ccc3cnc(CNC(=O)c4cc(Cl)c5c(c4)S(=O)(=O)[C@@H](F)COC5)cc3n2)nc1C1CC1(F)F (stereo partly shown) [Compound 507] |  | 30.86 | 13.5 nM |
| O=C(NCc1cc2nc(-c3ccc(OC(F)F)c(C4CC4(F)F)n3)ccc2cn1)c1cc(Br)c2c(c1)S(=O)(=O)[C@@H](F)CCO2 (stereo partly shown) [Compound 448] | 19 nM | 37.60 |  |
| COCCOc1cnc2c(c1)CCCN2c1ccc2cnc(CNC(=O)c3cc(Cl)c4c(c3)S(=O)(=O)[C@@H](F)COC4)cc2n1 [Compound 412] | 11.9 nM | 21.10 |  |
| [2H]C([2H])([2H])Oc1ccc(-c2ccc3cnc(CNC(=O)c4cc(C(F)F)c5c(c4)S(=O)(=O)[C@@H](F)COC5)cc3n2)nc1C1CC1(F)F (stereo partly shown) [Compound 455] | 10.4 nM | 45.81 |  |
| CCOc1cccc(-c2ccc3cnc(CNC(=O)c4cc(Cl)c5c(c4)S(=O)(=O)[C@@H](F)CCO5)cc3n2)n1 [Compound 359] | 18.8 nM | 29.73 |  |
| O=C(NCc1cc2nc(-c3cncc(OC(F)F)n3)ccc2cn1)c1cc(Cl)c2c(c1)S(=O)(=O)[C@@H](F)COC2 [Compound 452] | 20.4 nM | 28.85 |  |
| [2H]C1([2H])Oc2c(F)cc(C(=O)NCc3cc4nc(-c5ccc(OCC)c(C6CC6(F)F)n5)ccc4cn3)cc2S(=O)(=O)[C@@]([2H])(F)C1([2H])[2H] (stereo partly shown) [Compound 374] | 17.8 nM | 54.50 |  |
| C[C@@H]1CN(c2cccc(-c3ccc4cnc(CNC(=O)c5cc(C6CC6)c6c(c5)S(=O)(=O)[C@@H](F)CCO6)cc4n3)n2)C[C@H](C)O1 [Compound 350] | 17 nM | 25.08 |  |
| Cc1cc(C(=O)NCc2cc3nc(-c4ccc(C(F)F)c(C5CC5)n4)ccc3cn2)cc2c1OCC[C@H](F)S2(=O)=O [Compound 385] | 20.9 nM | 22.49 |  |
| O=C(NCc1cc2nc(N3CCC(F)(F)c4cc(C5CC5)cnc43)ccc2cn1)c1cc(F)c2c(c1)S(=O)(=O)[C@@H](F)CCO2 [Compound 425] | 2.3 nM | 24.38 |  |
| O=C(NCc1cc2nc(-c3cccc(OC(F)F)c3F)ccc2cn1)c1cc(Cl)c2c(c1)S(=O)(=O)[C@@H](F)COC2 [Compound 444] | 22.6 nM | 24.79 |  |
| CCOc1nc(C(F)F)ccc1-c1ccc2cnc(CNC(=O)c3cc(Cl)c4c(c3)S(=O)(=O)[C@@H](F)COC4)cc2n1 [Compound 431] | 9.5 nM | 31.77 |  |
| COc1nc(-c2ccc3cnc(CNC(=O)c4cc(Cl)c5c(c4)S(=O)(=O)[C@@H](F)CCO5)cc3n2)ccc1C(F)F [Compound 360] | 19.9 nM | 23.20 |  |

| SMILES | IC50 (Homo sapiens, A549, 6 h) | Ratio (MDA-MMTV IC50 (μM) divided by A549-MMTV IC50 (μM)) | IC50 |
| --- | --- | --- | --- |
| O=C(NCc1cc2nc(-c3ccc(OC(F)F)c([C@@H]4CC4(F)F)n3)ccc2cn1)c1cc(C(F)F)c2c(c1)S(=O)(=O)[C@@H](F)COC2 [Compound 451] | 5.6 nM | 25.86 |  |
| Cc1cc(C(=O)NCc2cc3nc(N4CCOc5ccc(C(F)F)nc54)ccc3cn2)cc2c1OCC[C@H](F)S2(=O)=O [Compound 340] | 15.8 nM | 26.04 |  |
| [2H]C([2H])([2H])C([2H])([2H])Oc1nc([C@H](F)CF)ccc1-c1ccc2cnc(CNC(=O)c3cc(Br)c4c(c3)S(=O)(=O)[C@@H](F)COC4)cc2n1 [Compound 485] | 12 nM | 49.42 |  |
| [2H]C([2H])([2H])C([2H])([2H])Oc1nc([C@H](F)CF)ccc1-c1ccc2cnc(CNC(=O)c3cc(C(F)F)c4c(c3)S(=O)(=O)[C@@H](F)COC4)cc2n1 [Compound 478] | 10.4 nM | 33.55 |  |
| O=C(NCc1cc2nc(-c3cccc(C4CC4)n3)ccc2cn1)c1cc(Cl)c2c(c1)S(=O)(=O)[C@@H](F)CCO2 [Compound 337] | 20.1 nM | 30.81 |  |
| O=C(NCc1cc2nc(-c3ccc([C@H](F)C(F)F)c(C4CC4)n3)ccc2cn1)c1cc(Br)c2c(c1)S(=O)(=O)[C@@H](F)COC2 [Compound 492] | 16.6 nM | 24.09 |  |
| CCOc1nn(-c2ccc3cnc(CNC(=O)c4cc(C(F)F)c5c(c4)S(=O)(=O)[C@@H](F)COC5)cc3n2)cc1F [Compound 501] | 13 nM | 30.55 |  |
| C[C@@H]1CN(c2cccc(-c3ccc4cnc(CNC(=O)c5cc(F)c6c(c5)S(=O)(=O)[C@@H](F)CO6)cc4n3)n2)C[C@H](C)O1 [Compound 341] | 122 nM | 28.75 |  |
| COc1nc([C@@H](F)CF)ccc1-c1ccc2cnc(CNC(=O)c3cc(Cl)c4c(c3)S(=O)(=O)[C@@H](F)COC4)cc2n1 [Compound 381] | 6.8 nM | 29.06 |  |
| CC(C)c1ccc(-c2ccc3cnc(CNC(=O)c4cc(F)c5c(c4)S(=O)(=O)[C@@H](F)CCO5)cc3n2)nc1C1CC1 [Compound 396] | 13.8 nM | 25.74 |  |
| O=C(NCc1cc2nc(-c3ccc(OC(F)F)c(C4CC4)n3)ccc2cn1)c1cc(C(F)F)c2c(c1)S(=O)(=O)[C@@H](F)COC2 [Compound 415] | 7.6 nM | 35.99 |  |
| COCCc1ccc2c(n1)N(c1ccc3cnc(CNC(=O)c4cc(F)c5c(c4)S(=O)(=O)[C@@H](F)CCO5)cc3n1)CCO2 [Compound 432] | 13 nM | 25.93 |  |
| COCCOc1cnc2c(c1)C(F)(F)CCN2c1ccc2cnc(CNC(=O)c3cc(Br)c4c(c3)S(=O)(=O)[C@@H](F)CCO4)cc2n1 [Compound 462] | 8.1 nM | 25.94 |  |
| O=C(NCc1cc2nc(-c3ccc(C(F)F)c(C4CC4)n3)ccc2cn1)c1cc(Cl)c2c(c1)S(=O)(=O)[C@@H](F)CCO2 [Compound 371] | 7.9 nM | 21.86 |  |
| CCOc1nc(C(F)F)ncc1-c1ccc2cnc(CNC(=O)c3cc(Cl)c4c(c3)S(=O)(=O)[C@@H](F)COC4)cc2n1 [Compound 505] | 10.6 nM | 21.63 |  |
| [2H]C([2H])([2H])Oc1ccc(-c2ccc3cnc(CNC(=O)c4cc(Br)c5c(c4)S(=O)(=O)[C@@H](F)COC5)cc3n2)nc1C1CC1 [Compound 522] | 21.4 nM | 29.68 |  |
| O=C(NCc1cc2nc(-c3ccc(OC(F)F)c([C@H]4CC4(F)F)n3)ccc2cn1)c1cc(Cl)c2c(c1)S(=O)(=O)[C@@H](F)COC2 [Compound 447] | 13.8 nM | 22.11 |  |
| O=C(NCc1cc2nc(-c3cccc(OC(F)F)n3)ccc2cn1)c1cc(Cl)c2c(c1)S(=O)(=O)[C@@H](F)CCO2 [Compound 346] | 19.9 nM | 44.98 |  |
| O=C(NCc1cc2nc(-n3cc(F)c(OC(F)F)n3)ccc2cn1)c1cc(F)c2c(c1)S(=O)(=O)[C@@H](F)COC2 [Compound 473] | 17.1 nM | 22.61 |  |
